Reference: the OligoGym collection
Where “and” joins values, the source holds several entries; their conditions need not be identical. Identical values can stand only once. After the bases stand the sugars from the 5' end (letter, count) and the backbone: PS all phosphorothioate, else s phosphorothioate and o phosphodiester by linkage. HELM strings list units from the 5' end as sugar, base in round brackets, then linkage (d deoxyribose, r ribose, m 2'-O-methyl, p phosphodiester). Methylation of C is not given here. [moe] = 2'-O-(2-methoxyethyl) (MOE); [cEt] = constrained ethyl (cEt); [sp] = phosphorothioate linkage; e = 2'-O-(2-methoxyethyl) (MOE); d = 2'-deoxy (DNA)

How the values were obtained:
HBV = settings: ASO
DGAT2 = settings: ASO

Row | Substance | target mRNA inhibition (HBV; HepG2, 0.07 µM) | other results
1 | RNA1{[moe](G)[sp].[moe](A)[sp].[moe](A)[sp].[moe](G)[sp].d(C)[sp].d(G)[sp].d(A)[sp].d(A)[sp].d(G)[sp].d(T)[sp].d(G)[sp].d(C)[sp].d(A)[sp].[moe](C)[sp].[moe](A)[sp].[moe](C)}$$$$V2.0 | 48% and 59% | –
2 | RNA1{[moe](T)[sp].[cEt](C)[sp].[cEt](C)[sp].d(A)[sp].d(C)[sp].d(C)[sp].d(A)[sp].d(C)[sp].d(G)[sp].d(A)[sp].d(G)[sp].d(T)[sp].d(C)[sp].[cEt](T)[sp].[cEt](A)[sp].[moe](G)}$$$$V2.0 | 54% and 44% | –
3 | RNA1{[moe](G)[sp].[moe](C)[sp].[moe](A)[sp].[moe](C)[sp].[moe](T)[sp].d(A)[sp].d(G)[sp].d(T)[sp].d(A)[sp].d(A)[sp].d(A)[sp].d(C)[sp].d(T)[sp].d(G)[sp].[moe](A)[sp].[moe](G)}$$$$V2.0 | 60% | –
4 | RNA1{[moe](A)[sp].[moe](T)[sp].d(T)[sp].d(T)[sp].d(A)[sp].d(T)[sp].d(G)[sp].d(C)[sp].d(C)[sp].d(T)[sp].d(A)[sp].[moe](C)[sp].[moe](A)[sp].[moe](G)[sp].[moe](C)[sp].[moe](C)[sp].[moe](T)}$$$$V2.0 | 71% and 65% | target mRNA inhibition (HBV; HepG2, 0.0092593 µM): 0%; target mRNA inhibition (HBV; HepG2, 0.0277778 µM): 21%; target mRNA inhibition (HBV; HepG2, 0.0833333 µM): 22%; target mRNA inhibition (HBV; HepG2, 0.25 µM): 53%
5 | RNA1{[moe](A)[sp].[moe](G)[sp].[moe](A)[sp].[moe](G)[sp].[moe](A)[sp].d(A)[sp].d(G)[sp].d(T)[sp].d(C)[sp].d(C)[sp].d(A)[sp].d(C)[sp].d(C)[sp].d(A)[sp].[moe](C)[sp].[moe](G)[sp].[moe](A)}$$$$V2.0 | 28% and 27% | –
6 | RNA1{[moe](A)[sp].[moe](G)[sp].[moe](A)[sp].d(G)[sp].d(G)[sp].d(T)[sp].d(G)[sp].d(A)[sp].d(A)[sp].d(G)[sp].d(C)[sp].d(G)[sp].[moe](A)[sp].[moe](A)[sp].[moe](G)[sp].[moe](T)}$$$$V2.0 | 51% and 44% | –
7 | RNA1{[moe](T)[sp].[cEt](G)[sp].d(A)[sp].d(A)[sp].d(G)[sp].d(C)[sp].d(G)[sp].d(A)[sp].d(A)[sp].d(G)[sp].d(T)[sp].d(G)[sp].[cEt](C)[sp].[moe](A)[sp].[cEt](C)[sp].[moe](A)}$$$$V2.0 | 76% and 71% | –
8 | RNA1{[moe](G)[sp].[cEt](A)[sp].[cEt](G)[sp].d(A)[sp].d(G)[sp].d(A)[sp].d(A)[sp].d(G)[sp].d(T)[sp].d(C)[sp].d(C)[sp].d(A)[sp].d(C)[sp].[cEt](C)[sp].[cEt](A)[sp].[moe](C)}$$$$V2.0 | 65% and 63% | –
9 | RNA1{[moe](A)[sp].[moe](A)[sp].d(C)[sp].d(T)[sp].d(G)[sp].d(G)[sp].d(A)[sp].d(G)[sp].d(C)[sp].d(C)[sp].d(A)[sp].[moe](C)[sp].[moe](C)[sp].[moe](A)[sp].[moe](G)[sp].[moe](C)}$$$$V2.0 | 48% and 43% | –
10 | RNA1{[moe](C)[sp].[moe](A)[sp].d(A)[sp].d(T)[sp].d(T)[sp].d(T)[sp].d(A)[sp].d(T)[sp].d(G)[sp].d(C)[sp].d(C)[sp].[moe](T)[sp].[moe](A)[sp].[moe](C)[sp].[moe](A)[sp].[moe](G)}$$$$V2.0 | 27% and 25% | –
11 | RNA1{[moe](G)[sp].[moe](C)[sp].[moe](A)[sp].d(G)[sp].d(A)[sp].d(G)[sp].d(G)[sp].d(T)[sp].d(G)[sp].d(A)[sp].d(A)[sp].d(G)[sp].[moe](C)[sp].[moe](G)[sp].[moe](A)[sp].[moe](A)}$$$$V2.0 | 58% and 64% | –
12 | RNA1{[moe](A)[sp].[moe](G)[sp].d(G)[sp].d(C)[sp].d(A)[sp].d(T)[sp].d(A)[sp].d(G)[sp].d(C)[sp].d(A)[sp].d(G)[sp].[moe](C)[sp].[moe](A)[sp].[moe](G)[sp].[moe](G)[sp].[moe](A)}$$$$V2.0 | 57% and 51% | –
13 | RNA1{[moe](G)[sp].[moe](C)[sp].d(A)[sp].d(C)[sp].d(T)[sp].d(A)[sp].d(G)[sp].d(T)[sp].d(A)[sp].d(A)[sp].d(A)[sp].[moe](C)[sp].[moe](T)[sp].[moe](G)[sp].[moe](A)[sp].[moe](G)[sp].[moe](C)}$$$$V2.0 | 75% and 78% | –
14 | RNA1{[moe](C)[sp].[moe](G)[sp].d(A)[sp].d(A)[sp].d(C)[sp].d(C)[sp].d(A)[sp].d(C)[sp].d(T)[sp].d(G)[sp].d(A)[sp].[moe](A)[sp].[moe](C)[sp].[moe](A)[sp].[moe](A)[sp].[moe](A)[sp].[moe](T)}$$$$V2.0 | 55% and 36% | –
15 | RNA1{[moe](C)[sp].[moe](A)[sp].d(G)[sp].d(A)[sp].d(G)[sp].d(G)[sp].d(T)[sp].d(G)[sp].d(A)[sp].d(A)[sp].d(G)[sp].[moe](C)[sp].[moe](G)[sp].[moe](A)[sp].[moe](A)[sp].[moe](G)}$$$$V2.0 | 35% and 36% | –
16 | RNA1{[moe](A)[sp].[moe](C)[sp].[moe](C)[sp].[moe](A)[sp].d(A)[sp].d(T)[sp].d(T)[sp].d(T)[sp].d(A)[sp].d(T)[sp].d(G)[sp].d(C)[sp].d(C)[sp].[moe](T)[sp].[moe](A)[sp].[moe](C)[sp].[moe](A)}$$$$V2.0 | 39% and 38% | –
17 | RNA1{[moe](C)[sp].[cEt](C)[sp].d(A)[sp].d(C)[sp].d(T)[sp].d(G)[sp].d(A)[sp].d(A)[sp].d(C)[sp].d(A)[sp].d(A)[sp].d(A)[sp].[cEt](T)[sp].[moe](G)[sp].[cEt](G)[sp].[moe](C)}$$$$V2.0 | 76% and 78% | –
18 | RNA1{[moe](G)[sp].[moe](A)[sp].d(G)[sp].d(T)[sp].d(T)[sp].d(C)[sp].d(C)[sp].d(G)[sp].d(C)[sp].d(A)[sp].d(G)[sp].[moe](T)[sp].[moe](A)[sp].[moe](T)[sp].[moe](G)[sp].[moe](G)}$$$$V2.0 | 52% and 45% | –
19 | RNA1{[moe](A)[sp].[moe](A)[sp].[moe](G)[sp].[moe](A)[sp].d(T)[sp].d(G)[sp].d(A)[sp].d(G)[sp].d(G)[sp].d(C)[sp].d(A)[sp].d(T)[sp].d(A)[sp].[moe](G)[sp].[moe](C)[sp].[moe](A)[sp].[moe](G)}$$$$V2.0 | 44% and 37% | –
20 | RNA1{[moe](G)[sp].[moe](C)[sp].[moe](A)[sp].[moe](G)[sp].[moe](A)[sp].d(G)[sp].d(G)[sp].d(T)[sp].d(G)[sp].d(A)[sp].d(A)[sp].d(G)[sp].d(C)[sp].d(G)[sp].[moe](A)[sp].[moe](A)[sp].[moe](G)}$$$$V2.0 | 76% and 59% | –
21 | RNA1{[moe](A)[sp].[moe](A)[sp].[moe](C)[sp].[moe](C)[sp].[moe](A)[sp].d(C)[sp].d(T)[sp].d(G)[sp].d(A)[sp].d(A)[sp].d(C)[sp].d(A)[sp].d(A)[sp].d(A)[sp].[moe](T)[sp].[moe](G)}$$$$V2.0 | 24% and 20% | –
22 | GTAGACTCTCCATGAGCCTA (sugars e5 d10 e5, PS) | – | target mRNA inhibition (DGAT2; HepG2, 2.5 µM): 49%; target mRNA inhibition (DGAT2; HepG2, 10 µM): 88%
23 | CACCTGTTACTACATGTCTA (sugars e5 d10 e5, PS) | – | target mRNA inhibition (DGAT2; HepG2, 2.5 µM): 68%; target mRNA inhibition (DGAT2; HepG2, 10 µM): 93%
24 | TTGCAATGTTGCCATCATAC (sugars e5 d10 e5, PS) | – | target mRNA inhibition (DGAT2; HepG2, 10 µM): 96% and 94%
25 | AGGGTTCATGGATCCCC (sugars e3 d10 e4, PS) | – | target mRNA inhibition (DGAT2; HepG2, 2.5 µM): 46%; target mRNA inhibition (DGAT2; HepG2, 10 µM): 76%
26 | CTTTGGATAGTCGATTTACC (sugars e5 d10 e5, PS) | – | target mRNA inhibition (DGAT2; HepG2, 2.5 µM): 59%; target mRNA inhibition (DGAT2; HepG2, 10 µM): 88%
